From PMC11488100, “PET imaging of CXCR4 expression using [^18F]AlF-NOTA-QHY-04 for hematologic malignancy and solid tumors” (Theranostics, 2024)
Bridge positions count the residues as written; N and C are the ends. Square brackets hold non-standard residues; d marks the D form. Peptide text beside a SMILES is read from it. * marks the point of attachment. NOTA = O=C(O)CN1CCN(CC(=O)O)CCN(CC(=O)*)CC1; 2Nal = N[C@@H](Cc1ccc2ccccc2c1)C(=O)O; Pen = CC(C)(S)[C@H](N)C(=O)O; 4Amb = NCc1ccc(C(=O)O)cc1; Ahx = NCCCCCC(=O)O

Assays:
[1] = target: T1, recombinant CXCR4 protein (Homo sapiens, UniProt P61073); experiment: Biolayer interferometry (BLI) binding assay; settings: BLI Octet Red96, biotinylated CXCR4 on SSA biosensors, 30 °C, HBS-P buffer pH 7.4, 0.0313-1 μM, 1:1 binding model, global fit
T1 construct: purchased Novoprotein C16M
T1 sequence (P61073 1-39 limits assumed): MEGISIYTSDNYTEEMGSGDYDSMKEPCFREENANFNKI
Method: The in vitro and in vivo stability of [^18F]AlF-NOTA-QHY-04 were evaluated by radio-HPLC to examine the RCP after different incubation periods. The binding affinity of the unlabeled precursor to CXCR4 was measured using the biolayer interferometry Octet Red96 system (PALL ForteBio, USA). The details are supplied in the supplemental materials. […]
human serum albumin solution were evaluated by radio-HPLC to examine the radiochemical purity after different incubation periods. For the saline study, 200 μL of [18F]AlF-NOTA-QHY-04 (0.74–3.70 MBq) was incubated at 37°C with 800 μL of saline for 1 h, 3 h and 6 h respectively, and then directly evaluated by radio -HPLC. […] Finally, the supernatant was collected and passed through a 0.22 μm membrane filter (Millipore, USA) and analyzed by radio-HPLC. […]
The processed blood supernatants and diluted urine samples were collected and passed through a 0.22 μm membrane filter (Millipore, USA) and analyzed by radio-HPLC. […]
and 1 μM NOTA-QHY-04 sample) was prepared and flowed. […] Prior to fitting, the data were baseline-subtracted and analyzed using a 1:1 binding model and the ForteBio data analysis software. Mean Kd value was determined by applying a global fit to all the data. […]

[2] = [18F]FDG PET/CT imaging in cancer patients; format: in vivo, human
Text: Potential eligible patients with newly diagnosed tumor were recruited from Shandong Cancer Hospital and institute from November 2022 to December 2023. A total of 55 patients including 8 tumor types were represented in this study (diffuse large B-cell lymphoma (DLBCL), n = 6; SCLC, n = 30; non-small cell lung cancer (NSCLC), n = 4; triple-negative breast cancer (TNBC), n = 3; pancreatic carcinoma, n = 3; glioma, n = 7; hepatocellular carcinoma (HCC), n = 1; and colorectal carcinoma (CRC), n = 1). The [^18F]AlF-NOTA-QHY-04 imaging study in patients was approved by the Institutional Review Board of Shandong Cancer Hospital and Institute (no. SDZLEC2023-256-02), and the patients provided their informed consent before inclusion in this study. In this prospective observational study, [^18F]AlF-NOTA-QHY-04 PET/CT scans should not affect the normal process of routine examinations and treatment as usual. Patients were enrolled according to the following criteria: (1) newly diagnosed cancer patients with visible tumors on conventional imaging; (2) histopathologically confirmed diagnosis; (3) age ≥ 18 years; (4) Eastern Cooperative Oncology Group (ECOG) performance status score of 0-2; (5) no prior cancer-directed therapy; (6) ability to undergo [^18F]AlF-NOTA-QHY-04 PET/CT scanning before treatment initiation. Specifically, regarding histological confirmation, we followed the standard clinical practice guidelines for each type of cancer [21]-[26], and provided detailed descriptions of our approach for obtaining histological evidence in the supplemental materials. All patients included in this study were treatment-naïve at the time of [^18F]AlF-NOTA-QHY-04 PET/CT imaging, to ensure that CXCR4 expression levels were not altered by treatments. PET/CT scans were performed within one week of pathological confirmation and carefully coordinated with the patient's clinical teams to avoid any delays in the initiation of treatment. Seven patients from them also underwent [^18F]FDG PET/CT scan. These patients fasted for at least 6 hours before [^18F]FDG PET/CT imaging. The methods for PET/CT scanning and image analysis were the same as previously reported, and detailed in the supplemental materials.
pathologists following standard diagnostic criteria, including routine H&E staining and
relevant immunohistochemical analyses. Histological confirmation was completed before
patients underwent [18F]AlF-NOTA-QHY-04 PET/CT imaging to ensure an accurate
correlation between imaging findings and tumor characteristics.
All the PET/CT scans in patients were acquired through an integrated in -line PET/CT
system (GEMINI TF Big Bore, Philips Healthcare, USA) at 60 min after intravenous
administration of 4.81 MBq/kg [18F]AlF-NOTA-QHY-04 or [18F]FDG. The
medical information system (Beijing Mozi Healthcare Technology Co., Ltd., Beijing,
China). ROIs were drawn on the transaxial images , and the maximum, mean, and peak
standard uptake value (SUV max, SUVmean, SUVpeak) were calculated automatically and used
for measuring the uptake of [18F]AlF-NOTA-QHY-04 by malignant tissues. In PET imaging
of brain tumors, T/N (tumor-to-normal brain ratio) was calculated according to the ratio of
SUVmax of tumor to SUVmean of the contralateral normal brain tissue. Two experienced
nuclear medicine physicians unaware of the patients’ clinical history analyzed the PET/CT
data first independently and then in consensus . […]
For mIF staining, the FFPE sections were baked for 2 h at 60 °C and then
deparaffinized with xylene and rehydrated through decreasing gradient ethanol. Antigen
retrieval was performed in AR6 buffer (Akoya Biosciences) in a microwave oven for 15

[3] = 10 lesions of DLBCL patient No. 32

## C[C@H](NC(=O)[C@H](CCCNC(=N)N)NC(=O)CCCCCNC(=O)c1ccc(CNC(=O)CN2CCN(CC(=O)O)CCN(CC(=O)O)CC2)cc1)C(=O)N[C@@H]1CSSC(C)(C)[C@@H](C(=O)O)NC(=O)[C@H](Cc2c[nH]cn2)NC(=O)[C@H](Cc2ccc3ccccc3c2)NC(=O)[C@H](CCCNC(=N)N)NC1=O [[^natF]AlF-NOTA-QHY-04] ({NOTA-4Amb-Ahx}-RA[dC]R[2Nal]H[Pen]-OH; disulfide 3-7)
[1]
  Kd: 41.3 ± 5.5 nM

## OC[C@H]1OC(O)[C@H]([18F])[C@@H](O)[C@@H]1O (stereo partly shown) [[^18F]FDG]
[2]; [3]
  SUVmax: 8.00 ± 4.57
  SUVmean: 4.39 ± 2.36
[2]; SUVmax of tumor / SUVmean of contralateral normal brain, three PCNS DLBCL and one low-grade glioma patient
  average T/N (tumor-to-normal brain ratio): 1.70 ± 0.25
[2]; bone metastasis of NSCLC patient No. 35
  SUVmax: 4.1
[2]; inguinal lymph node of DLBCL patient No. 32
  SUVmax: 2.17
[2]; lymph node metastasis of NSCLC patient No. 35
  SUVmax: 4.26
[2]; primary lesion of NSCLC patient No. 35
  SUVmax: 5.23
[2]; three PCNS DLBCL patients and one low-grade glioma patient imaged with both tracers
  average SUVmax: 12.12 ± 2.03

## C[C@H](NC(=O)[C@H](CCCNC(=N)N)NC(=O)CCCCCNC(=O)c1ccc(CNC(=O)CN2CCN(CC(=O)O)CCN(CC(=O)O)CC2)cc1)C(=O)N[C@@H]1CSSC(C)(C)[C@@H](C(=O)O)NC(=O)[C@H](Cc2c[nH]cn2)NC(=O)[C@H](Cc2ccc3ccccc3c2)NC(=O)[C@H](CCCNC(=N)N)NC1=O [NOTA-QHY-04] ({NOTA-4Amb-Ahx}-RA[dC]R[2Nal]H[Pen]-OH; disulfide 3-7)
[1]
  Kd: 55.2 ± 11.3 nM
